Experiments:
Type in all cases: in vivo, Wistar rats
Bax = assay: WB detection of apoptosis-related protein Bax in hippocampal tissues of PTZ-kindling rats; conditions: hippocampus at end of 14-day treatment, 100 mg/kg intragastric, versus model group
Procedure: At the end of the experiment, the brains and hippocampi of the laboratory animals were collected and frozen at −80° C.
4. WB Detection of Expression of Apoptosis-Related Proteins Bax and Bcl-2 in Hippocampal Tissues of Rats:
The hippocampal tissue was cut into small pieces, the lysis buffer (protease and phosphatase inhibitors added to the lysis buffer) was added at a ratio of 150-250 μL:20 mg, and the mixture was homogenized with a homogenizer until complete lysis. The sample obtained after the lysis was centrifuged at 12,000 g at 4° C. for 15 min. The supernatant was taken, subjected to protein quantification, and stored in a refrigerator at −80° C.
• (1) Standard curve plotting: a microplate was taken, and reagents were added according to the table below. […]
About 25 μg of the protein was loaded into each well, and the loading amount can be increased according to the experiment requirements. According to the results of protein quantification, the required protein was taken and a proper amount of sample loading buffer was added. […]

γ-aminobutyric acid = assay: Content of γ-aminobutyric acid in homogenate of brain tissues of rats (kit method); conditions: PTZ rats after 14 days, 100 mg/kg intragastric (positive drug = valproate)
Procedure: (§1) 5. Determination of Contents of γ-Aminobutyric Acid, Glutamic Acid, Glycine, and Aspartic Acid in Rat Brain Tissue by the Kit Method
(§2) The experimental procedures and methods were referred to the kit instructions.
(§3) The contents of excitatory amino acids (glutamic acid and aspartic acid) and inhibitory neurotransmitters (γ-aminobutyric acid and glycine) in the homogenate of brain tissues were determined by an ELISA kit.

glutamic acid = assay: Content of glutamic acid in homogenate of brain tissues of rats (kit method); conditions: PTZ rats after 14 days, 100 mg/kg intragastric (positive drug = valproate)
Procedure: as §1, §2, §3

[1] = test system: PTZ-kindling epileptic rats; assay: PTZ-kindling epilepsy model: seizure duration, Ono's grade, latency
Procedure: Wistar rats, SPF grade, weighing 240-260 g, aged 6-8 weeks, female, purchased from Shanghai Slac Laboratory Animal Co., Ltd. Feeding environment: the temperature was kept at 22±1° C., and the humidity was kept at 65%-70%, in a 12/12 hour light/dark illumination cycle, with free access to water.
After 1 week of acclimatization of all rats, modeling was started. A 1.75% PTZ solution was prepared with normal saline, and the prepared PTZ solution was injected intraperitoneally at a dose of 35 mg/kg. PTZ was injected once every other day, and behavioral changes of the rats were observed within 30 min after the PTZ injection, and the seizure grade was recorded.
During the experiment, after 11 consecutive injections of PTZ, the seizure grade was recorded. All rats had 5 consecutive recordings of grade 2 or above, and modeling for all rats was successful after 11 consecutive injections of PZT into all rats.
After the modeling was successful, the rats were randomly grouped. Treatment was started. All Wistar rats were weighed and doses for the intragastric administration were calculated.
Before the administration and on day 7 and day 14 after the administration, the prepared PTZ solution was injected intraperitoneally at a dose of 35 mg/kg 1 h after intragastric administration. Behavioral changes of the rats were observed within 30 min after the PTZ injection.
Behavioral seizure indexes before and after the administration were recorded and graded according to Ono's grading. The seizure latency, seizure grade and seizure duration were recorded.

With `C=C(C)[C@@H]1CCC(C)=C[C@H]1c1c(O)cc(CCCCC)cc1OCC(=O)N[C@@H](CCSC)C(=O)[O-].[Na+]` [Compound E1] the “Bax protein expression in hippocampal tissues” value (Bax) was “significant down-regulation of Bax protein expression”, the γ-aminobutyric acid (γ-aminobutyric acid) was 771.17 ± 81.98 nmol/g and the Glutamic acid (glutamic acid) was 0.14 ± 0.02 µmol/mg. The “Ono's grade before treatment” value ([1]; grade 0-6 (Table 1), baseline before treatment) was 3.17 ± 0.41, the “Ono's grade on day 7 of treatment” value ([1]; grade 0-6, intragastric 100 mg/kg (positive drug = valproate), day 7) was 3.33 ± 0.52 and the “Ono's grade on day 14 of treatment” value ([1]; grade 0-6, intragastric 100 mg/kg (positive drug = valproate), day 14) was 3.33 ± 0.52. For the same compound, the “Duration on day 7 of treatment” value ([1]; intragastric 100 mg/kg (positive drug = valproate 100 mg/kg), PTZ 35 mg/kg i.p. 1 h after administration, day 7) was 290.50 ± 66.93 s, the “Duration on day 14 of treatment” value ([1]; intragastric 100 mg/kg (positive drug = valproate 100 mg/kg), PTZ 35 mg/kg i.p. 1 h after administration, day 14) was 299.67 ± 39.25 s and the “Latency on day 7 of treatment” value ([1]; intragastric 100 mg/kg (positive drug = valproate), day 7) was 82.83 ± 20.90 s. For the same compound, the “Latency on day 14 of treatment” value ([1]; intragastric 100 mg/kg (positive drug = valproate), day 14) was 87.00 ± 20.96 s, the “change in duration of seizure on day 14 as compared to day 7 of treatment” value ([1]; intragastric 100 mg/kg, PTZ-kindling rats) was “no change in the duration of seizure” and the Latency before treatment ([1]; latency to seizure after PTZ 35 mg/kg i.p., baseline before treatment) was 85.75 ± 21.45 s. The Duration before treatment ([1]; seizure duration after PTZ 35 mg/kg i.p., baseline before treatment) was 359.83 ± 14.41 s.

— patent US20240417371A1, “CANNABIDIOL DERIVATIVE, AND PREPARATION METHOD THEREFOR AND USE THEREOF” (priority 2021, published 2024)
